From US9957257B2, “Amide compounds as 5-HT4 receptor agonists” (SUVEN LIFE SCIENCES LIMITED, priority 2015, dated 2018)

Columns and labels:
[1] = Rodent brain penetration study; assay type: in vivo, Male Wistar rats; settings: male, Wistar, rat, 3 mg/kg, oral (gavage), read-out: Single dose Brain Penetration (Cb/Cp)
Method: Male Wistar rats (225±25 grams) were used as experimental animals. Three animals were housed in each cage. Animals were given water and food ad libitum throughout the experiment and maintained on a 12 hours light/dark cycle. Brain penetration was determined in discrete manner in rats. One day prior to dosing day, male wistar rats (225-250 grams) were acclimatized. After acclimatization the rats were grouped according to their weight. In each group, 3 animals were kept in individual cage and allowed free access to food and water. At each time point (0.50, 1 and 2 hours) n=3 animals were used. The test compounds were suitably preformulated and administered orally at (free base equivalent) 3 mg/kg. Blood samples were removed via, cardiac puncture by using isoflurane anesthesia. The animals were sacrificed to collect brain tissue. Plasma was separated and brain samples were homogenized and stored frozen at −20° C. until analysis. The concentrations of the test compounds in plasma and brain were determined using LC-MS/MS method. The test compounds were quantified in plasma and brain homogenate by qualified LC-MS/MS method using suitable extraction technique. The test compounds were quantified in the calibration range of 1-500 ng/mL in plasma and brain homogenate. Study samples were analyzed using calibration samples in the batch and quality control samples spread across the batch. Extent of brain-plasma ratio was calculated (Cb/Cp).

[2] = Radial arm maze; assay type: in vivo, rats; settings: p.o.
Excerpt: The cognition enhancing properties of test compounds of this invention were estimated by using this model.
Radial arm maze consists of a central hub of 45 cm diameter. Each arm was of dimension 42.5×15×24 cm. The maze was elevated to a height of 1 m above the ground. The animals were placed on a restricted diet until they reached approximately 85% of their free feeding weight. During this diet restriction period animals were habituated to the novel feed (pellets). Once the rats reached approximately 85% of their free feeding weight, rats were habituated to the maze on the 1st and 2nd day. […] Animals were randomized on day 2. On the subsequent days the treatment was given as per the allotment. Each animal was introduced into the maze individually for a period of 10 minutes. The arms were baited only once and the animal had to learn the rule that repeated arm entries would not be rewarded. The trial ended once the rat had visited 16 arms or 10 minutes were over or all the pellets were eaten. The arm entries were recorded using the software. Once the trial was over the rat was removed and the maze was cleaned using soap water.

[3] = Rodent pharmacokinetic study; assay type: in vivo, Male wistar rats; settings: male, Wistar, plasma, rat
Method: Male wistar rats (225±25 grams) were used as experimental animals. Three to five animals were housed in each cage. Two days prior to dosing day, male wistar rats (225-250 grams) were anesthetized with isoflurane for surgical placement of jugular vein catheter. Animals were fasted overnight before oral dosing (p.o) and food pellets were allowed 2 hours post dosing, whereas during intravenous dosing food and water were provided as ad libitum. Three rats were dosed with test compounds (3 mg/kg) orally and intravenously (1 mg/kg).
At each time point blood was collected through jugular vein and immediately replenish with an equivalent volume of normal saline from freely moving rats. Collected blood was transferred into a labeled eppendr off containing 10 μL of heparin as anticoagulant. Typically blood samples were collected as following time points: Pre dose, 0.08 (only i.v.), 0.25, 0.5, 1, 2, 4, 6, 8, and 24 hours post dose-(n=3). Blood was centrifuged at 4000 rpm for 10 minutes. Plasma was prepared and stored frozen at −20° C. until analysis. The concentrations of the test compounds were quantified in plasma by qualified LC-MS/MS method using suitable extraction technique. The test compounds were quantified in the calibration range around 2-2000 ng/mL in plasma. Study samples were analyzed using calibration samples in the batch and quality control samples spread across the batch.
Pharmacokinetic parameters Cmax, Tmax, AUCt, T1/2 and Bioavailability were calculated by non-compartmental model using standard non-compartmental model by using WinNonLin 5.0.1 or Phoenix WinNonlin 6.2 version Software package.

[4] = tested on: sAPPα; experiment: Estimation of mice brain cortical sAPPα levels (ELISA); assay type: in vivo, Male C57BL/6J mice; settings: 1 mg/kg, s.c., 60 minutes post treatment
Method: 3. The supernatant was discarded and to the precipitate, 4 times volume (0.8 mL/200 mg tissues) of TBS was added.
4. From the above centrifuged mixture the supernatant was discarded and 10 times volume of 6M Guanidine-HCl in 50 mM Tris buffer pH: 7.6 (500 μL/50 mg tissues) was added.
5. […] From this 5 μL of supernatant solution was taken and diluted with 155 μL of EIA buffer (dilution factor 32).
The entire procedure was followed as described in the ELISA kit manual (Mouse/Rat sAPPα ELISA, Catalog Number: JP27415, Innovation Beyond Limits International, Hamburg, Germany).
Statistical analyses were performed using the Graph Pad Prism (Version 4).

[5] = tested on: acetylcholine; experiment: Modulation of acetylcholine from the ventral hippocampus (microdialysis); assay type: in vivo, male Wistar rats; settings: 1.0 mg/kg, p.o.
Excerpt: Male Wistar rats (240-300 grams) were stereotaxically implanted with a microdialysis guide cannula in ventral hippocampus (AP: −5.2 mm, ML: +5.0 mm, DV: −3.8 mm). Co-ordinates were taken according to Paxinos and Watson (2004) with reference points taken from bregma and vertical from the skull. The rats were allowed to recover individually for four to five days in a round bottom Plexiglas bowl with free access to feed and water.
One day prior to the microdialysis experiment, rats were connected to a dual quartz lined two-channel liquid swivel (Instech, UK) on a counter balance lever arm, which allowed unrestricted movements of the animal. […]
A stabilization period of 2 h was maintained and five basal samples were collected at 20 minutes intervals. […] Dialysates were stored below −70° C. until quantitation of acetylcholine.
Acetylcholine in dialysate was quantified in the calibration range of 0.103 nmol-103.491 nmol using LC-MS/MS method.
All microdialysis data were plotted as percent change from mean dialysate basal concentrations with 100% defined as the average of five pre-dose values. The AUC was calculated by trapezoidal rule using WinNonlin (5.0.1 version, Pharsight Corp. CA). The statistical significance between the mean AUC values of treatment groups with vehicle was calculated using one-way ANOVA followed by Dunnett's test. […]

For `CC(C)(O)CN1CCC(F)(CNC(=O)c2cc(Cl)c(N)c3ccoc23)CC1` [Example 50, 4-Amino-5-chloro-N-{[4-fluoro-1-(2-hydroxy-2-methylpropyl)-4-piperidinyl]methyl}benzofuran-7-carboxamide L(+)-tartarate], the Kp [1] was 1.48 ± 0.26, the “Reversal of Scopolamine Induced amnesia - Effective dose range” value [2] was 1 mg/kg, p.o and the AUC(0-t) ([3]; 1 mg/kg, intravenous (bolus)) was 182 ± 37 ng·h/mL. The half-life ([3]; 1 mg/kg, intravenous (bolus)) was 1.2 h, the bioavailability ([3]; 3 mg/kg oral vs 1 mg/kg intravenous) was 63 ± 13% and the AUC(0-t) ([3]; 3 mg/kg, oral (gavage)) was 346 ± 71 ng·h/mL. The Cmax ([3]; 3 mg/kg, oral (gavage)) was 230 ± 56 ng/mL, the Tmax ([3]; 3 mg/kg, oral (gavage)) was 0.25 h and the half-life ([3]; 3 mg/kg, oral (gavage)) was 1.5 h. For the same molecule, the “increase in mice brain cortical sAPPα levels” value [4] was 44%, the “Area under the curve increase, hippocampal acetylcholine” value [5] was 31% and the “increase in acetylcholine levels from ventral hippocampus” value [5] was 51%.
